“Also recorded” adds a separate entry of the source. One block for each compound: values may come before it.
How the values were obtained:
[1] = test system: lung cancer cell line A549; test: tumor growth inhibition, A549; type: cell-based, Human; settings: Homo sapiens
Text: (§1) Growth Inhibition. […] T1 values≤T0 values were designated as T, cytotoxicity.

c-Src 3T3 cells = test: BrdU cell growth inhibition, c-Src 3T3; type: cell-based, mouse; settings: Mus musculus; for activity at 0.1 µM / activity at 1 µM / activity at 10 µM: NIH3T3, read-out: c-Src 3T3 Growth, % of Control Mean, n = 3; for activity at 0.1 µM: 100 nM; for GI50: c-Src 3T3 (c-Src527F/NIH3T3) cells, read-out: GI50
In short: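 c-Src 3T3 cells on poly-D-lysine plates in DMEM with 2% FBS, L-glutamine, pyruvate and 10 mM HEPES. Compounds came from 20 mM DMSO stocks diluted in DMEM/10% FBS. Proliferation was read by colorimetric BrdU-incorporation ELISA, and GI50 was extrapolated from growth relative to time-zero and untreated controls.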

[2] = test system: colon tumor cell line KM 12; test: tumor growth inhibition, KM12; type: cell-based; settings: Homo sapiens; KM12 cells
Method: (§2) These GI50's were determined using the standard tumor growth inhibition assays, similar to that described in detail for the HT29 cell line above, and the following cell lines: colon tumor cell lines KM 12, lung cancer cell line H460 and lung cancer cell line A549 (all are NCI standard tumor cell lines).

[3] = test system: lung cancer cell line H460; test: tumor growth inhibition, H460; type: cell-based; settings: Homo sapiens, NCI-H460; H460 cells
Method: as §2

HT29 cell line = test: BrdU cell growth inhibition, HT29; type: cell-based, human; settings: Homo sapiens; for GI50: HT-29, HT29 (Colon) cells, read-out: GI50; for activity at 0.05 µM / activity at 0.5 µM / activity at 5 µM: HT-29, read-out: HT-29 Growth, % of Control Mean, n = 3; for activity at 0.05 µM: 50 nM; for activity at 0.5 µM: 500 nM
In short: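 HT29 colon carcinoma cells treated with compounds diluted from 20 mM DMSO stocks into DMEM/10% FBS. Proliferation read as colorimetric BrdU incorporation ELISA; GI calculated relative to untreated cells at time 0 and control cells at day n, with GI50 extrapolated. Net cell loss below time-0 level scored as cytotoxicity.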

Caki-2 = test: renal tumor cell growth inhibition, Caki-2; type: cell-based, Human; settings: Homo sapiens; Caki-2, clear cell carcinoma
Method: (§3) These GI50s were determined using standard tumor growth inhibition assays, similar to those described in detail in this Example 7.

769-P = test: renal tumor cell growth inhibition, 769-P; type: cell-based, Human; settings: Homo sapiens
Method: as §3

786-O = test: renal tumor cell growth inhibition, 786-O; type: cell-based, Human; settings: Homo sapiens, 786-0, renal cell adenocarcinoma
Method: as §3

ACHN = test: renal tumor cell growth inhibition, ACHN; type: cell-based, Human; settings: Homo sapiens, renal cell adenocarcinoma
Method: as §3

[4] = cisplatin-induced hearing loss; type: in vivo; settings: guinea pigs, subcutaneous treatment prior to cisplatin
Method: The effects of high level noise and ototoxic drugs, such as cisplatin or the class of aminoglycosides, share several common features in the inner ear. First, the noise and/or drugs alter the free radical/antioxidant levels in the cochlea (inner ear). […] Guinea pigs (N=7) were used in studies of cisplatin-induced hearing loss. The animals' hearing sensitivity was measured using standard electrophysical techniques before the experimental manipulation. […] Animals were anesthetized and treated with cisplatin. Subsequently, the animals' hearing was tested to determine evoked potential threshold shifts.
KX1 is CH65. Animals were treated subcutaneously with KX1-004 prior to the cisplatin-induced hearing loss.

[5] = noise-induced hearing loss; type: in vivo, Chinchillas; settings: chinchilla ears treated on round window, 4 kHz band noise 105 dB SPL 4 h, days 1, 7, 21; relative to control ears
Method: Chinchillas (N=6) were used in studies of noise-induced hearing loss. The animals' hearing sensitivity was measured using standard electrophysical techniques before the experimental manipulation. […] Animals were anesthetized, the auditory bullae were opened, and the left and right cochleas were visualized. The round window leading to the scala tympani of the cochlea was used as the access point for drug application. Animals were treated with KX1-004, KX1-141, KX1-329 or KX2-328 (a non-ATP competitive inhibitor from AstraZeneca, KX2-238), emulsified in DMSO, in 1000 mM of saline solution, which was placed on the round window of one ear. KX1-004:
A control solution of 3 mM DMSO in 1000 mM of saline solution was placed on the round window of the other ear. The solution was allowed to set on the round window for 30 minutes, then the auditory bullae were closed. […] Following the noise exposure, the animals' hearing was tested at day 1, day 7, and day 21 to determine evoked potential threshold shifts. Permanent threshold shift was assessed at day 21.
FIGS. 10-12 show the average threshold shifts for animals treated with KX1-004, KX1-141, KX1-329 or KX2-328.

[6] = test system: MOLT-4 (Adult lymphoblastic leukemia); test: growth inhibition, MOLT-4; type: cell-based, Human; settings: Homo sapiens
[7] = test system: PC3-MM2 prostate cancer cells; test: orthotopic prostate model for in vivo metastases; set-up: species or system Nu/Nu mice; settings: 15 mg/kg/day oral gavage
Method: Nu/Nu mice (8-12 weeks of age) were injected with PC3-MM2 prostate cancer cells into the prostate as described previously in Pettaway et al., Clin Cancer Res 1996, 2:1627-1636, hereby incorporated herein by reference in its entirety. […] All mice were sacrificed by cervical dislocation on about day 42. Tumor volume (measured by caliper), weight, and incidence of regional (celiac or para-aortal) lymph node metastases were recorded.

H226 = test: MTT growth inhibition, Dasatinib-resistant H226; type: cell-based, human; settings: Homo sapiens, NCI-H226, H226, 8.0×10^3 cells/well, 1.5% FBS, 78 Hr
Method: Cell proliferation/growth inhibition was assessed using MTT colorimetric assay.
On Day 3, 10 μL MTT (5 mg/mL) was added to each well. Cells were then incubated in the presence of MTT for 4 hours at 37° C., appropriate CO2 conditions. After this incubation period, 90 μL 10% SDS(+HCl) was added to each well to lyse cells and solubilize formazan. Cells were then incubated overnight at 37° C., appropriate CO2 conditions.
The OD570 was measured using microplate reader. Growth inhibition curves and EC50/IC50 was determined using GraphPad Prism 4 statistical software.

WRL-68 = test: MTT growth inhibition, WRL-68; type: cell-based, human
Method: (§4) Samples of the test compounds were formulated in 100% DMSO to obtain 20 mM stock solutions; stored @ 4° C. The IC50s and IC80s were determined as described below. Huh7, WRL-68, PLC/PRF/5, Hep 3B, and Hep G2 human cancer lines were routinely cultured and maintained in a basal medium containing 2% FBS @ 37° C., 5% CO2. […] Vehicle control contained cells, no sample. Medium control contained cells, no sample, 0.03% DMSO (highest DMSO concentration present in samples). […] On day 3, 10 μL MTT (5 mg/mL) were added to each well. Cells were incubated in the presence of MTT for 4 hours @ 37° C., 5% CO2. […] Cells were then incubated overnight @ 37°, 5% CO2. OD570 measurements were taken using BioTek Synergy HT multiplatform microplate reader. Growth inhibition curves IC50s and IC80s were determined using GraphPad Prism 5 statistical software.

Hep 3B = test: MTT growth inhibition, Hep 3B; type: cell-based, human
Method: as §4

K562 (CML) = test: growth inhibition (BrdU), K562; type: cell-based, Human; settings: Homo sapiens; K562, BrdU, T=72
Text: as §1

HuH7 = test: MTT growth inhibition, HuH7; type: cell-based, human
Method: (§5) Samples of the test compounds were formulated in 100% DMSO to obtain 20 mM stock solutions; stored @ 4° C. The IC50s and IC80s were determined as described below. Huh7, WRL-68, PLC/PRF/5, Hep 3B, and Hep G2 human cancer lines were routinely cultured and maintained in a basal medium containing 2% FBS @ 37° C., 5% CO2. […] The assay medium was basal medium/1.5% FBS. Cells were cultured overnight in 96-well plates at 37° C., 5% CO2 prior to KX2-391. MSA and Dasatinib addition. […] 10 μL of 20× dilutions were added to the appropriate wells (n=3) containing 190 μL cancer cell line; 6561 nM to 0.012 nM range of final concentrations. Vehicle control contained cells, no sample. Medium control contained cells, no sample, 0.03% DMSO (highest DMSO concentration present in samples). […] On day 3, 10 μL MTT (5 mg/mL) were added to each well. Cells were incubated in the presence of MTT for 4 hours @ 37° C., 5% CO2. […] Cells were then incubated overnight @ 37°, 5% CO2. OD570 measurements were taken using BioTek Synergy HT multiplatform microplate reader. Growth inhibition curves IC50s and IC80s were determined using GraphPad Prism 5 statistical software.

[8] = test system: HT29 (human colon cancer); settings: mouse, in vivo
[9] = test system: CCRF-HSB-2 (Adult lymphoblastic leukemia); test: growth inhibition, CCRF-HSB-2; type: cell-based, Human
Ba/F3 (IL-3 induced) = test: MTT growth inhibition, Ba/F3 + IL-3; type: cell-based; settings: 96 hrs
PLC/PRF/5 = test: MTT growth inhibition, PLC/PRF/5; type: cell-based, human
Method: as §4

Hep G2 = test: MTT growth inhibition, Hep G2; type: cell-based, human; settings: Hep G2, 8.0×10^3 cells/wells, […] FBS @ 78 Hr
Method: as §5

[10] = WRL-68, 8.0×10^3 cells/wells, […] FBS @ 78 Hr
[11] = Hep 3B, 8.0×10^3 cells/wells, […] FBS @ 78 Hr
[12] = HuH7, 8.0×10^3 cells/wells, […] FBS @ 78 Hr
[13] = PLC/PRF/5, 8.0×10^3 cells/wells, […] FBS @ 78 Hr

melting point: 169 to 170 °C
GI50 ([1]; A549 (Lung) cells): 330 nM
GI50 [2]: 105 nM
GI50 [3]: 280 nM
GI50 (HT29 cell line): 484 nM
Compound: O=C(Cc1ccc(-c2ccccc2)cc1)NCc1cccc(O)c1 [KX1-136, N(3-hydroxy-benzyl)-4-biphenylacetamide]
activity at 0.1 µM (c-Src 3T3 cells): 46.3%
activity at 1 µM (c-Src 3T3 cells): < 0%
activity at 10 µM (c-Src 3T3 cells): < 0%
GI50 (c-Src 3T3 cells): 53 nM
activity at 0.05 µM (HT29 cell line): 83.1%
activity at 0.5 µM (HT29 cell line): < 0%
activity at 5 µM (HT29 cell line): < 0%

GI50 (Caki-2): 5 nM
GI50 (769-P): 8.4 nM
GI50 (786-O): 57.7 nM
GI50 (ACHN): 6.9 nM
Compound: CN1CCN(CCOc2ccc(-c3ccc(CC(=O)NCc4cccc(F)c4)cc3)c(F)c2)CC1 [KX2-402]

Compound: KX1-004
protection against cisplatin-induced hearing loss [4]: protected against ciplatin-induced hearing loss
average dB threshold shifts [5]: lower

Compound: Cc1nc(Nc2ncc(C(=O)Nc3c(C)cccc3Cl)s2)cc(N2CCN(CCO)CC2)n1 [Dasatinib, reference compound]
GI50 [6]: 644 nM
LN metastasis [7]: 2/5
Tumor incidence [7]: 5/6
Tumor weight (g) Median [7]: 0.43 g
IC50 (H226): 163 nM
IC80 (H226): 7760 nM
IC80 (WRL-68; Homo sapiens, WRL68, 78 h): 45600 nM
IC80 (Hep 3B; Homo sapiens, Hep3B, 78 h): > 50000 nM
GI50 (K562 (CML)): < 1 nM
IC50 (HuH7; Homo sapiens, Huh-7, 78 h): 1970 nM
IC80 (HuH7; Homo sapiens, Huh-7, 78 h): 7140 nM
tolerability (reason for dose lowering at day 5) [8]: weight loss
GI50 [9]: Inactive (n = 1)
GI50 (Ba/F3 (IL-3 induced)): does not inhibit; also recorded: Inactive
IC80 (PLC/PRF/5; Homo sapiens, PLC-PRF-5, 78 h): > 50000 nM

Compound: O=C(Cc1ccc(-c2ccc(OCCN3CCOCC3)cc2)cn1)NCc1ccccc1 [KX2-391-MSA]
IC50 (Hep G2): 60 nM
IC80 (Hep G2): 3660 nM
IC50 (WRL-68; [10]): 15 nM
IC80 (WRL-68; [10]): 25 nM
IC50 (Hep 3B; [11]): 26 nM
IC80 (Hep 3B; [11]): 88 nM
IC50 (HuH7; [12]): 9 nM
IC80 (HuH7; [12]): 23 nM
IC50 (PLC/PRF/5; [13]): 13 nM
IC80 (PLC/PRF/5; [13]): 24 nM

melting point: 170 to 172 °C
GI50 ([1]; A549 cells): 1030 nM
GI50 [2]: 410 nM
GI50 [3]: 890 nM
GI50 (HT29 cell line): 877 nM
Compound: O=C(Cc1ccc(-c2ccccc2)cc1)NCc1cccc(F)c1 [KX1-305, N(3-fluoro-benzyl)-4-biphenylacetamide]
activity at 0.1 µM (c-Src 3T3 cells): 35%
activity at 1 µM (c-Src 3T3 cells): < 0%
activity at 10 µM (c-Src 3T3 cells): < 0%
GI50 (c-Src 3T3 cells): 349 nM
activity at 0.05 µM (HT29 cell line): 108%
activity at 0.5 µM (HT29 cell line): < 0%
activity at 5 µM (HT29 cell line): < 0%

Reference: patent publication US10196357B2, “Biaryl compositions and methods for modulating a kinase cascade” (Athenex, Inc., priority 2007, dated 2019)
